SMILES strings stand for the structures.

T1 sequence (P31388 whole entry): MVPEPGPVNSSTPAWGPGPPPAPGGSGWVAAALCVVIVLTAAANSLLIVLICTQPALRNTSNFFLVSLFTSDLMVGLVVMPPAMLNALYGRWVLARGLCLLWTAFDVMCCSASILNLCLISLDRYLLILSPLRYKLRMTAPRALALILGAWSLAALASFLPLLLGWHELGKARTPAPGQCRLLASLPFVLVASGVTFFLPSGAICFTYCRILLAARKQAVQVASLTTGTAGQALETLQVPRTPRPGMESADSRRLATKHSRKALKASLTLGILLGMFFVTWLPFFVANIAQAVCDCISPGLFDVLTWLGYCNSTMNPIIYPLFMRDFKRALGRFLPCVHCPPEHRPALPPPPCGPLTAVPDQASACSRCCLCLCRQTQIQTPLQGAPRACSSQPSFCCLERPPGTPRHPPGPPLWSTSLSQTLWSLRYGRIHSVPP

This assay has as its target T1, rat striatal 5HT6 receptors (Rattus norvegicus, UniProt P31388).
T1 construct: Striatal tissue from adult rats (Sprague-Dawley, 320-370 g, B & K Sweden) were dissected out, weighed and homogenized; from tissue; host or cells: rat striatum (Sprague-Dawley) membranes
Nature of the assay: [125I]SB258585 binding to rat striatal 5HT6 receptors. Conditions: competition with [125I]SB258585, rat striatal membranes. On the procedure:
Method for [125I]SB258585 binding to rat striatal 5HT6 receptors
[125I]SB258585 (1) with specific activity 2000 Ci/mmol was purchased from Amersham Biosciences Europe GmbH, Freiburg, Germany. Other chemicals were purchased from commercial sources and were of analytical grade.
Striatal tissue from adult rats (Sprague-Dawley, 320-370 g, B & K Sweden) were dissected out, weighed and homogenized in buffer containing 50 mM Tris-HCl, 4 mM MgCl2, 1 mM EDTA, 10 μM pargyline and protease inhibitor (Complete, Roche Diagnostics) pH 7.4 using an Ultra-Turrax T8 (IKA Labortechnik, Germany). The tissue homogenate was centrifuged at 48 000×g for 10 min and the pellet was resuspended and recentrifuged as above. The final membranes were diluted in buffer to a concentration of 60 mg original wet weight (w.w.) per ml and stored in aliquots at −70° C.
Saturation binding studies were carried out in duplicate with 1-3 mg w.w. per tube in 0.5 ml buffer (50 mM Tris, 4 mM MgCl2, 100 mM NaCl, 1 mM EDTA, 5 mM ascorbate and 10 μM pargyline at pH 7.4), 0.2 nM [125I]SB258585 and unlabelled SB258585 to give a final concentration range of 0.23-20 nM (12 conc.). Non-specific binding was determined in the presence of 10 μM methiothepin. In the competition experiments 0.8-2 mg w.w. per tube and a radioligand concentration of 0.5-1 nM were used with 7 concentrations of the competing drug pre-dissolved in DMSO and diluted in buffer. The assays were incubated for 1-3 hours at room temperature, and terminated by rapid filtration through Whatman GF/B filters pretreated with 0.3% polyethyleneimine using a Brandel cell harvester. The radioactivity was determined in a Packard Tri-Carb 2900TR liquid scintillation counter. Data were analyzed by non-linear regression analyses using PRISM 4.00 (GraphPad Software Inc., San Diego, Calif.).
Hirst, W. D., Minton, J. A. L., Bromidge, S. M., Moss, S. F., Latter, A., Riley, G., Routledge, C., Middlemiss, D. N. & Price, G. W. (2000). Characterization of [125I]-SB-258585 binding to human recombinant and native 5HT6 receptors in rat, pig and human brain tissue. Br. J. Pharmacol., 130, 1597-1605.
Regarding `COc1ccc(NS(=O)(=O)c2cccc(Br)c2)c2c1C[C@@H](N(C)C)CO2` [Example 3, 3-Bromo-N-[(3R)-3-(dimethylamino)-5-methoxy-3,4-dihydro-2H-chromen-8-yl]benzenesulfonamide], the affinity corresponds to a Ki of 7.5 ± 3.6 nM. Compound `COc1ccc(NS(=O)(=O)c2ccc3ccccc3c2)c2c1C[C@@H](N(C)C)CO2` [Example 24, N-[(3R)-3-(dimethylamino)-5-methoxy-3,4-dihydro-2H-chromen-8-yl]naphthalene-2-sulfonamide] returned a Ki of 42 ± 27 nM. For the compound `COc1ccc(NS(=O)(=O)c2ccccc2-c2ccccc2)c2c1C[C@@H](N(C)C)CO2` [Example 122, N-[(3R)-3-(dimethylamino)-5-methoxy-3,4-dihydro-2H-chromen-8-yl]-1,1′-biphenyl-2-sulfonamide], the Ki came to 2 ± 0.6 nM.

Turning to `COc1ccc(NS(=O)(=O)c2ccc(-c3ccnc(SC)n3)s2)c2c1C[C@@H](N(C)C)CO2` [Example 135, N-[(3R)-3-(dimethylamino)-5-methoxy-3,4-dihydro-2H-chromen-8-yl]-5-[2-(methylthio)pyrimidin-4-yl]thiophene-2-sulfonamide], the Ki is 49 ± 16 nM. Turning to `CN(C)[C@H]1CCc2c(cccc2NS(=O)(=O)c2cccc(Br)c2)C1` [Example 170, (2S)-5-{[(3-Bromophenyl)sulfonyl]amino}-N,N-dimethyl-1,2,3,4-tetrahydronaphthalen-2-ammonium Acetate], the Ki stood at 74 nM. `COc1ccc(NS(=O)(=O)c2ccccc2-c2ccccc2)c2c1C[C@@H](N(C)C)CC2` [Example 176, N-[(6S)-6-(dimethylamino)-4-methoxy-5,6,7,8-tetrahydronaphthalen-1-yl]-1,1′-biphenyl-2-sulfonamide] showed a Ki of 13 ± 5.9 nM. Consider `COc1ccc(NS(=O)(=O)c2sc3ccc(F)cc3c2C)c2c1C[C@@H](N(C)C)CC2` [Example 181, N-[(6S)-6-(dimethylamino)-4-methoxy-5,6,7,8-tetrahydronaphthalen-1-yl]-5-fluoro-3-methyl-1-benzothiophene-2-sulfonamide], for which the Ki stood at 19 ± 0.8 nM. As for `COc1ccc(NS(=O)(=O)c2cc(Cl)cc(Cl)c2)c2c1C[C@@H](N1CCCC1)CC2` [Example 313, 3,5-Dichloro-N-[(6S)-4-methoxy-6-pyrrolidin-1-yl-5,6,7,8-tetrahydronaphthalen-1-yl]benzenesulfonamide], the Ki came out at 290 ± 190 nM.

The values are drawn from patent US20090030038A1, “Novel 8-Sulfonylamino-3 Aminosubstituted Chroman or Tetrahydronaphtalene Derivatives Modulating the 5Ht6 Receptor” (ASTRAZENECA AB, priority 2005, published 2009).
